Our source for the carcinogen call values is PubChem BioAssay AID1259411 (Chemical Carcinogenesis Research Information System (CCRIS), 2018).

Calls of active or inactive are those of the source. No rule for the calls is given here.

This series relates to rodent carcinogenicity bioassays, tumor incidence. The series can be described thus: CCRIS carcinogenicity studies. The gist of the method:
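Archive of carcinogenicity, mutagenicity, tumor promotion and tumor inhibition results drawn from journals, NCI reports and other sources, expert-reviewed; covers 1985-2011 and is no longer updated.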

On to `CCOc1ccc(NC(C)=O)cc1N`, for which the carcinogen call runs as follows: (Species: MOUSE, Strain/Sex: B6C3F1/FEMALE, Route: ORAL, Dose: 0, 0.4, 0.8% OF DIET, Dose: 0, 0.4, 0.8% OF DIET) “inactive; negative”; (Species: MOUSE, Strain/Sex: B6C3F1/MALE, Route: ORAL, Dose: 0, 0.4, 0.8% OF DIET, Dose: 0, 0.4, 0.8% OF DIET, Tumor Site: Type of Lesion: THYROID GLAND: FOLLICULAR CELL ADENOMA, CARCINOMA, ADENOCARCINOMA, ADENOMA, LUNG: ALVEOLAR/BRONCHIOLAR ADENOMA, CARCINOM) “active; positive”; (Species: RAT, Strain/Sex: F344/FEMALE, Route: ORAL, Dose: 0, 0.4, 1.5% OF DIET, Dose: 0, 0.4, 1.5% OF DIET) “inactive; negative”; (Species: RAT, Strain/Sex: F344/MALE, Route: ORAL, Dose: 0, 0.4, 1.5% OF DIET, Dose: 0, 0.4, 1.5% OF DIET) “inactive; negative”.

Turning to `CC(=O)OC[C@H]1O[C@H](O[C@]2(COC(C)=O)O[C@H](COC(=O)C(C)C)[C@@H](OC(=O)C(C)C)[C@@H]2OC(=O)C(C)C)[C@H](OC(=O)C(C)C)[C@@H](OC(=O)C(C)C)[C@@H]1OC(=O)C(C)C`, the carcinogen call reads like this: (Species: MONKEY, Strain/Sex: CYNOMOLGUS/FEMALE, Route: GAVAGE, Dose: 0, 500, 1450, 2400 MG/KG BW 1X/D FOR 52 WK (STUDY DURATION: 52 WK), Dose: 0, 500, 1450, 2400 MG/KG BW 1X/D FOR 52 WK (STUDY DURATION: 52 WK)) “inactive; negative”; (Species: MONKEY, Strain/Sex: CYNOMOLGUS/MALE, Route: GAVAGE, Dose: 0, 500, 1450, 2400 MG/KG BW 1X/D FOR 52 WK (STUDY DURATION: 52 WK), Dose: 0, 500, 1450, 2400 MG/KG BW 1X/D FOR 52 WK (STUDY DURATION: 52 WK)) “inactive; negative”; (Species: MOUSE, Strain/Sex: B6C3F1/FEMALE, Route: ORAL, Dose: 0, 1.25, 2.5, 5 G/KG BW IN DIET FOR 2 YR (STUDY DURATION: 2 YR), Dose: 0, 1.25, 2.5, 5 G/KG BW IN DIET FOR 2 YR (STUDY DURATION: 2 YR)) “inactive; negative”; (Species: MOUSE, Strain/Sex: B6C3F1/MALE, Route: ORAL, Dose: 0, 1.25, 2.5, 5 G/KG BW IN DIET FOR 2 YR (STUDY DURATION: 2 YR), Dose: 0, 1.25, 2.5, 5 G/KG BW IN DIET FOR 2 YR (STUDY DURATION: 2 YR)) “inactive; negative”; (Species: RAT, Strain/Sex: F344/FEMALE, Route: ORAL, Dose: 0 0.5, 1, 2 G/KG BE IN DIET FOR 2 YR (STUDY DURATION: 2 YR), Dose: 0 0.5, 1, 2 G/KG BE IN DIET FOR 2 YR (STUDY DURATION: 2 YR)) “inactive; negative”; (Species: RAT, Strain/Sex: F344/MALE, Route: ORAL, Dose: 0, 0.5, 1, 2 G/KG BW IN DIET FOR 2 YR (STUDY DURATION: 2 YR), Dose: 0, 0.5, 1, 2 G/KG BW IN DIET FOR 2 YR (STUDY DURATION: 2 YR)) “inactive; negative”.

`C=CN1CCCC1=O`: the carcinogen call (Species: RAT, Strain/Sex: SPRAGUE-DAWLEY/ MALE, Route: INHALATION, Dose: 0, 5, 10, 20 PPM 6 HR/D 5D/WK FOR 24 MO (STUDY DURATION: 24 MO), Dose: 0, 5, 10, 20 PPM 6 HR/D 5D/WK FOR 24 MO (STUDY DURATION: 24 MO), Tumor Site: Type of Lesion: LARYNX: SQUAMOUS CELL CARCINOMA, LIVER: HEPATOCELLULAR CARCINOMA, NASAL CAVITY: ADENOCARCINOMA, ADENOMA, Tumor Site: Type of Lesion: LARYNX: SQUAMOUS CELL CARCINOMA, LIVER: HEPATOCELLULAR CARCINOMA, NASAL CAVITY: ADENOCARCINOMA, ADENOMA) was “active; positive” and the carcinogen call (Species: RAT, Strain/Sex: SPRAGUE-DAWLEY/FEMALE, Route: INHALATION, Dose: 0, 5, 10, 20 PPM 6 HR/D 5 D/WK FOR 24 MO (STUDY DURATION: 24 MO), Dose: 0, 5, 10, 20 PPM 6 HR/D 5 D/WK FOR 24 MO (STUDY DURATION: 24 MO), Tumor Site: Type of Lesion: LARYNX: SQUAMOUS CELL CARCINOMA, LIVER: HEPATOCELLULAR CARCINOMA, NASAL CAVITY: ADENOCARCINOMA, ADENOMA, Tumor Site: Type of Lesion: LARYNX: SQUAMOUS CELL CARCINOMA, LIVER: HEPATOCELLULAR CARCINOMA, NASAL CAVITY: ADENOCARCINOMA, ADENOMA) was “active; positive”.

With `C=CSCCC(N)C(=O)O` (stereo unspecified), the carcinogen call is “active; positive” (Species: RAT, Strain/Sex: F344/MALE, Route: INTRAPERITONEAL, Dose: 0, 50-100 MG/KG 5 D/WK FOR 12 WK, STUDY DURATION: 25 MO, Dose: 0, 50-100 MG/KG 5 D/WK FOR 12 WK, STUDY DURATION: 25 MO, Tumor Site: Type of Lesion: LIVER: HEPATOCELLULAR CARCINOMA) and “active; positive” (Species: RAT, Strain/Sex: F344/MALE, Route: ORAL, Dose: 0, 0.05% IN METHYL-DEFICIENT DIET FOR 20 MO, Tumor Site: Type of Lesion: LIVER: HEPATOCELLULAR CARCINOMA).

`CCNC(=O)Nc1ncc([N+](=O)[O-])s1`: the carcinogen call was “equivocal” (Species: MOUSE, Strain/Sex: B6C3F1/FEMALE, Route: ORAL, Dose: 0, 2500, 5000 PPM IN DIET FOR 94 WK (STUDY DURATION: 104 WK), Dose: 0, 2500, 5000 PPM IN DIET FOR 94 WK (STUDY DURATION: 104 WK), Tumor Site: Type of Lesion: LIVER: HEPATOCELLULAR ADENOMA OR CARCINOMA); “active; positive” (Species: MOUSE, Strain/Sex: B6C3F1/MALE, Route: ORAL, Dose: 0, 2500, 5000 PPM IN DIET FOR 94 WK (STUDY DURATION: 104 WK), Dose: 0, 2500, 5000 PPM IN DIET FOR 94 WK (STUDY DURATION: 104 WK), Tumor Site: Type of Lesion: LIVER: HEPATOCELLULAR CARCINOMA OR ADENOMA); “active; positive” (Species: RAT, Strain/Sex: F344/FEMALE, Route: ORAL, Dose: 0, 625, 1250 PPM IN DIET FOR 94 WK (STUDY DURATION: 104 WK), Dose: 0, 625, 1250 PPM IN DIET FOR 94 WK (STUDY DURATION: 104 WK), Tumor Site: Type of Lesion: INTEGUMENTARY SYSTEM (SKIN AND SUBCUTANEOUS TISSUE) AND MAMMARY GLAND: FIBROADENOMA OR CYSTADENOMA (NOS)); “inactive; negative” (Species: RAT, Strain/Sex: F344/MALE, Route: ORAL, Dose: 0, 625, 1250 PPM IN DIET FOR 94 WK (STUDY DURATION: 104 WK), Dose: 0, 625, 1250 PPM IN DIET FOR 94 WK (STUDY DURATION: 104 WK)).

As for `O=C1C(c2[nH]c3ccc(S(=O)(=O)O)cc3c2O)=Nc2ccc(S(=O)(=O)O)cc21`, the carcinogen call was “inactive; negative” (Species: DOG, Strain/Sex: BEAGLE/MALE, FEMALE, Route: ORAL, Dose: 0, 1, 2% IN DIET FOR 2 YR, Dose: 0, 1, 2% IN DIET FOR 2 YR); “inactive; negative” (Species: MOUSE, Strain/Sex: C3H AND C57/MALE, FEMALE, Route: SUBCUTANEOUS, Dose: 0, 2.5 MG AS A 1% AQUEOUS SOLUTION 1/WK FOR 2 YR); “inactive; negative” (Species: MOUSE, Strain/Sex: CD-1/FEMALE, Route: ORAL, Dose: 0, 0.5, 1.5, 5% IN DIET FOR 23 MO (STUDY DURATION: 24 MO), Dose: 0, 0.5, 1.5, 5% IN DIET FOR 23 MO (STUDY DURATION: 24 MO)); “inactive; negative” (Species: MOUSE, Strain/Sex: CD-1/MALE, Route: ORAL, Dose: 0, 0.5, 1.5, 5% IN DIET FOR 22 MO (STUDY DURATION: 24 MO), Dose: 0, 0.5, 1.5, 5% IN DIET FOR 22 MO (STUDY DURATION: 24 MO)); “inactive; negative” (Species: RAT, Strain/Sex: OSBORNE-MENDEL/MALE, FEMALE, Route: ORAL, Dose: 0, 0.5, 1.0, 2.0, 5.0% IN DIET FOR 2 YR, Dose: 0, 0.5, 1.0, 2.0, 5.0% IN DIET FOR 2 YR); “active; positive” (Species: RAT, Strain/Sex: OSBORNE-MENDEL/MALE, FEMALE, Route: SUBCUTANEOUS, Dose: 0, 20 MG AS A 2% AQUEOUS SOLUTION 1/WK FOR 2 YR, Tumor Site: Type of Lesion: INJECTION SITE: FIBROSARCOMA). In addition, the carcinogen call is, setting by setting: (Species: RAT, Strain/Sex: STRAIN-CD/FEMALE, Route: ORAL, Dose: 0, 0.5, 1, 2% IN DIET FOR 30 MO TO ANIMALS ALSO EXPOSED IN UTERO THROUGH THE SAME DOSES ADMINISTERED TO PARENTS BEGINNIN, Dose: 0, 0.5, 1, 2% IN DIET FOR 30 MO TO ANIMALS ALSO EXPOSED IN UTERO THROUGH THE SAME DOSES ADMINISTERED TO PARENTS BEGINNIN) “inactive; negative”; (Species: RAT, Strain/Sex: STRAIN-CD/MALE, Route: ORAL, Dose: 0, 0.5, 1, 2% IN DIET FOR 29 MO TO ANIMALS ALSO EXPOSED IN UTERO THROUGH THE SAME DOSES ADMINISTERED TO PARENTS BEGINNIN, Dose: 0, 0.5, 1, 2% IN DIET FOR 29 MO TO ANIMALS ALSO EXPOSED IN UTERO THROUGH THE SAME DOSES ADMINISTERED TO PARENTS BEGINNIN) “inactive; negative”.
